According to article PMC7772889, “Integrating biokinetics and in vitro studies to evaluate developmental neurotoxicity induced by chlorpyrifos in human iPSC-derived neural stem cells undergoing differentiation towards neuronal and glial cells” (Reproductive Toxicology (Elmsford, N.y.), 2020):

Columns and labels:
[1] = prenatal exposure to CPF; cited from earlier work
[2] = tested on: hiPSC-derived NSCs undergoing differentiation towards neurons and astrocytes; assay: In vitro biokinetics of CPF and metabolites in medium, cells and plastic (HPLC-UV)
Description: The nominal concentration causing 5 % decrease of viability (IC5) was previously identified, extrapolating a dose response curves obtained with six CPF nominal concentrations (0.49, 1.95, 7.81, 31.25, 125, and 500 μM) vs solvent control (0.1 % DMSO) after 14-day treatment by means of resazurin test (CellTiter-Blue® Reagent).
CPF stock solutions were prepared in DMSO and stored in glass at −20 °C until the beginning of each experiment. Freshly prepared treatment solutions were obtained after the dilution of stock solutions in a ratio of […] in serum-free culture medium, keeping DMSO concentration at 0.1 %. Aliquots of the stock and daily treatment solutions (considered as the starting solutions) were stored at −80 °C until HPLC analysis.
Cells (about 21,000 cells/cm^2), seeded on 6 well PDL- and reduced growth factor Matrigel coated plates, were treated during the differentiation process, starting from day 7 of differentiation up to day 21, with treatment/medium refreshed twice a week (Fig. 2). Exposure to CPF of cells or pre-coated wells (without cells) was initiated by adding 2 mL per well of the corresponding treatment solutions or the vehicle (control wells). Four biological replicates were carried out.
A first set of experiments was used to fine tune the experimental conditions, including time points and exposure conditions, taking into account possible metabolism, bioaccumulation and/or physical sequestration processes. All the fractions (i.e., medium, cells, plastic and matrix-bound fractions) were collected, at the first and last day of treatment, at different time points (i.e., 1, 3, 6, 24 h) selected on the basis of the intrinsic features of the compound and the cellular model. At each time point, the medium was transferred into amber glass vials and stored at −80 °C until HPLC analysis. Cells were washed twice with PBS (2 mL/well); to avoid dehydration of the cells, an aliquot of PBS was kept in each well. PBS was then removed, cells were scraped from the wells in 250 μL MeOH, additional 100 μL MeOH were added for washing and all the content was transferred into amber glass vials. The same procedure was applied also to the wells used for measuring matrix-bound material (without cells). Cells were then sonicated until they were fully homogenized (about 15 min). All fractions, including DMSO from control wells and MeOH used to measure possible plastic binding, were stored at −80 °C until HPLC analysis. Four biological replicates were carried out.
All samples from kinetic experiments were analysed using high-performance liquid chromatography (HPLC), as previously described, to quantify CPF and its metabolites. Prior to analysis, one volume of the collected medium samples was mixed with three volumes of MeOH. All the mixtures, including cell and matrix-bound samples, were vortexed for 30 s and then centrifuged (Eppendorf 5417R; 4 °C, 2500 rpm) for 10 min. Preliminary assays were conducted to evaluate CPF and its metabolite recovery after the solvent extraction procedure from each type of sample. […] Plastic-bound fraction was injected as such.
The HPLC system included a PerkinElmer Series 200 analytical pump, a Restek™ Pinnacle ODS Amine C18 column, a PerkinElmer LC 235 Diode Array Detector and the PerkinElmer Totalchrom™ 3.1.2 software for data acquisition and evaluation. For analysing CPF, CPFO and TCP, a gradient elution was applied at a flow rate of 1.0 mL/min, starting at 80:20 % methanol /buffer (Tris /HCl 50 mM EDTA 1 mM pH 7.4) and reaching after 4 min a percentage of 70:30 (v/v), respectively, maintained for 16 min. Then, the gradient returned to the initial concentration before the next sample was injected.

[3] = cited from earlier work

Molecule: CCOP(=O)(O)OCC [diethylphosphate]
- level in human postpartum meconium [1]: 0.80 to 3.20 µg/g

Molecule: CCOP(O)(=S)OCC [diethylthiophosphate]
- level in human postpartum meconium [1]: 2.0 to 5.6 µg/g

Molecule: Oc1nc(Cl)c(Cl)cc1Cl [TCP, 3,5,6-trichloro-2-pyridinol]
- TCP in the intracellular compartment or adsorbed to the plastic ([2]; any time point): No TCP was detectable
- TCP present in the medium ([2]; first day of treatment with 21 μM CPF): 6–18%
- TCP present in the medium ([2]; last day of treatment with 21 μM CPF): 7–14%

Molecule: chlorpyrifos-oxon [CPFO]
- CPFO adsorbed to the plastic ([2]; any time point): no CPFO adsorbed to the plastic was detectable
- CPFO detection ([2]; last day of treatment): no longer detectable

Molecule: CCCCc1oc2ccccc2c1C(=O)c1cc(I)c(OCCN(CC)CC)c(I)c1 [amiodarone, reference compound]
- log Kow [3]: 7.6
